Results: publication PMC6034706 (ChemMedChem, 2017)
Where two headings read alike, the source gives them in different places.

How the values were obtained:
E. coli = experiment: Cell viability assay, bacterial growth; assay type: cell-based; details: for relative percentage growth, E. coli, Amox (+): with 50 μM amoxicillin; for relative percentage growth, E. coli, Amox (+) / relative percentage growth, E. coli, Amox (−): relative to untreated cells; for growth inhibition activity on its own: wild-type E. coli, without amoxicillin; for relative percentage growth, E. coli, Amox (−): compound alone
VIM2 expressing E. coli = assay type: cell-based; details: for relative percentage growth, VIM2 expressing E. coli, Amox (+): with 50 μM amoxicillin; for relative percentage growth, VIM2 expressing E. coli, Amox (+) / relative percentage growth, VIM2 expressing E. coli, Amox (−): relative to untreated cells; for growth inhibition activity on its own: VIM2-expressing E. coli, without amoxicillin; for relative percentage growth, VIM2 expressing E. coli, Amox (−): compound alone
VIM2 [1] = target: T1, VIM2 (Escherichia coli, UniProt Q5U7L7); assay type: biochemical, P. aeruginosa; details: 50 μM compound, 5 nM VIM-2, 10 μM nitrocefin, 30 mins
VIM2 [2] = target: T1, VIM2; experiment: biochemical; assay type: biochemical, P. aeruginosa; details: for IC50: 5 nM VIM-2, 10 μM nitrocefin
VIM-2 expressing E. coli = experiment: Half maximal effective concentration; assay type: cell-based; details: in the presence of 50 μM amoxicillin
[3] = Plasma stability study, human plasma; assay type: in vitro ADME; details: 10 μM, 37 °C, pooled plasma
[4] = Plasma stability study, mouse plasma; assay type: in vitro ADME; details: 10 μM, 37 °C, pooled plasma
[5] = tested on: human embryonic kidney HEK 293 cell lines; details: cited from earlier work
all eleven HDACs = details: earlier studies ref [10]; cited from earlier work
VIM2 [6] = target: T1, VIM2; design: species or system P. aeruginosa; details: 6 and 12 μM inhibitor, 6 μM VIM-2, ICP-AES
[7] = tested on: O=C(Cc1cccs1)N[C@@H]1C(=O)N2C(C(=O)O)=C(/C=C/c3ccc([N+](=O)[O-])cc3[N+](=O)[O-])CS[C@H]12; experiment: purified protein, by the assay type; details: other: 50 mM potassium phosphate buffer, pH 7.0, room temperature
[8] = competitive-inhibition fit, nitrocefin substrate

CC1(C)S[C@@H]2[C@H](NC(=O)[C@H](N)c3ccc(O)cc3)C(=O)N2[C@H]1C(=O)O [Amox, amoxicillin]
inhibition at 50 µM (E. coli; Escherichia coli, read-out: growth inhibition by amoxicillin alone): > 96%
relative percentage growth, E. coli, Amox (+) (E. coli): 3.6%
relative percentage growth, VIM2 expressing E. coli, Amox (+) (VIM2 expressing E. coli): 77%
relative percentage growth, VIM2 expressing E. coli, Amox (+) (VIM2 expressing E. coli; listed as amoxicillin): ineffective

O=C(O)[C@H]1/C(=C/CO)O[C@@H]2CC(=O)N21 [Clavulanate]
% Inhibition at 50 μM (VIM2 [1]): 15%
relative percentage growth, VIM2 expressing E. coli, Amox (+) (VIM2 expressing E. coli; listed as clavulanic acid): ineffective

On1ccccc1=S [Compound 2, 1-Hydroxypyridine-2-thione]
Ki (VIM2 [2]): 217 nM
growth inhibition activity on its own (E. coli): over 89%
growth inhibition activity on its own (VIM2 expressing E. coli): over 89%

[Na+].[O-]n1ccccc1=S [Compound 2b]
% Inhibition at 50 μM (VIM2 [1]): 93%
IC50 (VIM2 [2]): 908 nM
Ki (VIM2 [2]; [8]): 217 nM

O=C(O)c1cccc(=S)n1O [Compound 3, 1-hydroxypyridine-2(1H)-thiones-6-carboxylic acid]
% Inhibition at 50 μM (VIM2 [1]): 98%
Ki (VIM2 [2]): 0.013 nM
IC50 (VIM2 [2]): 270 nM
LE (ligand efficiency) (VIM2 [2]; LE = -1.38 log (Ki) / N, N = number of heavy atoms): 0.99
Ki (VIM2 [2]; [8]): 13 nM
relative percentage growth, E. coli, Amox (−) (E. coli): 77%
growth inhibition activity on its own (E. coli): moderate antibacterial activity
relative percentage growth, E. coli, Amox (+) (E. coli): 3.6%
growth inhibition activity on its own (VIM2 expressing E. coli): moderate antibacterial activity
relative percentage growth, VIM2 expressing E. coli, Amox (−) (VIM2 expressing E. coli): 61%
relative percentage growth, VIM2 expressing E. coli, Amox (+) (VIM2 expressing E. coli): 3.2%
EC50 (VIM-2 expressing E. coli): 110 nM
Human Plasma t1/2 [3]: 11.7 min
Mouse Plasma t1/2 [4]: 12.7 min
CC50 [5]: 97400 nM
range of selectivity among HDACs (all eleven HDACs): ~5000 fold

O=C(O)CN(CCN(CC(=O)O)CC(=O)O)CC(=O)O [EDTA]
metal content of VIM-2 with increasing inhibitor concentration (VIM2 [6]): inverse relationship

C[C@H](CS)C(=O)N1CCC[C@H]1C(=O)O [L-Captopril]
% Inhibition at 50 μM (VIM2 [1]): 98%
growth inhibition activity on its own (E. coli): moderate antibacterial activity
growth inhibition activity on its own (VIM2 expressing E. coli): moderate antibacterial activity
metal content of VIM-2 with increasing inhibitor concentration (VIM2 [6]): relatively unaffected

O=C(CCCCCCC(=O)Nc1ccccc1)NO [SAHA]
relative percentage growth, E. coli, Amox (−) (E. coli): 83%
relative percentage growth, E. coli, Amox (+) (E. coli): 3.6%
relative percentage growth, VIM2 expressing E. coli, Amox (−) (VIM2 expressing E. coli): 79%
relative percentage growth, VIM2 expressing E. coli, Amox (+) (VIM2 expressing E. coli): 60%

C[C@]1(Cn2ccnn2)[C@H](C(=O)O)N2C(=O)C[C@H]2S1(=O)=O [Tazobactam]
% Inhibition at 50 μM (VIM2 [1]): 25%

VIM-2 (Escherichia coli)
kcat [7]: 212 s⁻¹
